Legend:
[1] = tested on: EL3187; assay: EL3187 (lung) patient-derived xenograft (PDX) model; type: in vivo, mouse
Method: For xenograft models of H1373, HCC44, MiaPaca-2, SW1463, SW837, KYSE-410 and UM-UC-3, typically 5-10×10^6 cells in a 1:1 matrigel mix (0.2 mL total volume) are implanted by subcutaneous injection in hind leg of nude mice. […] Treatment is initiated with oral administration (gavage) of testing compound or vehicle (20% captisol, 25 mM phosphate, pH2.0) in 0.2 mL volume when tumor size reaches approximately 200-300 mg. Tumor growth and body weight are monitored over time to evaluate efficacy and signs of toxicity. For EL3187 PDX model, frozen vials containing tumor fragments are thawed at 37° C. in a water bath. The tumor fragments are transferred to 50 mL Falcon tube and the ice cold DMEM medium is slowly added into the tube to a total volume of 35 mL. Then the tumor fragments are centrifuged at 130×g for 2 minutes at 4° C. and supernatant is aspirated. This washing step is repeated twice and the tumor fragments are resuspended in 10 mL DMEM for implantation into athymic nude-Foxn1nu mice (Envigo RMS, Inc., Mount Comfort, Indiana). Once tumor volumes reach 800 to 1000 mm^3, animals are sacrificed and tumors are harvested using aseptic technique. Fresh tumors are cut into 10 to 15 mm^3 fragments and placed into cold Gibco hibernate medium. The tumor fragments are subcutaneously implanted into animals with a 10 g trochar needle. When tumor size reaches 200 to 300 mm^3, the animals are randomized for compound treatment.
Among models listed in Table 2, EL3187 is a patient-derived xenograft (PDX) model, and all other are tumor xenograft models.

[2] = Description: A “DLT” is defined as any of the treatment-emergent adverse event (TEAEs), as defined by the National Cancer Institute's Common Terminology Criteria for Adverse Events, version 5.0 (NCI CTCAE v5.0), deemed clinically significant and occurring during the first 21 days of study drug per dose level per patient, unless the adverse event (AE) can be clearly related to the patient's underlying disease, other medical condition, or concomitant medications including any AEs attributed by the Investigator to the combination agent alone. A TEAE is defined as an AE that starts or worsens on or after the date of the first dose of study drug (for example on Study Day 1) through 28 days (+14 days window) after the date of the last dose of study drug or the first date starting new anticancer therapy, whichever is earlier. A Serious TEAE is defined as an TEAE that is grade 3 or higher based on severity grade assignment as defined by the National Cancer Institute's Common Terminology Criteria for Adverse Events, version 5.0 (NCI CTCAE v5.0). A Fatal TEAE is defined as an TEAE that is grade 5 based on severity grade assignment as defined by the National Cancer Institute's Common Terminology Criteria for Adverse Events, version 5.0 (NCI CTCAE v5.0).
NCT04956640 includes Phase 1a dose escalation (Part A of NCT04956640, see Table 3) followed by a Phase 1b dose expansion (Parts B to E of NCT04956640, see Table 4). […] Phase 1b dose expansion will include 12 cohorts (See Table 4) to further evaluate safety and clinical activity.

## C=CC(=O)N1CCN2C(=O)c3cc(F)c(-c4ccc(F)c5sc(N)c(C#N)c45)c(Cl)c3OCC[C@H]2C1 (single isomer, unassigned) [Formula I]
[1]; 1 mg/kg BID x28
  tumor growth inhibition (%) or regression (− %): 89.2%
[1]; 1 mg/kg QD x28
  tumor growth inhibition (%) or regression (− %): 52%
[1]; 3 mg/kg BID x28
  tumor growth inhibition (%) or regression (− %): −91%
[1]; 3 mg/kg QD x28
  tumor growth inhibition (%) or regression (− %): −39.8%
[1]; 10 mg/kg BID x28
  tumor growth inhibition (%) or regression (− %): −96%
[1]; 10 mg/kg QD x28
  tumor growth inhibition (%) or regression (− %): −96%
[2]; 50 mg BID
  discontinuation due to TRAE: one
[2]; 50 mg BID and 100 mg BID
  rate of immune-related AEs, including hepatoxicity: low rate of immune-related AEs
[2]; 50 mg and 100 mg BID
  dose reductions: no dose reductions

From patent US20240108618A1, “KRAS G12C INHIBITOR DOSING REGIMENS” (Eli Lilly and Company, priority 2022, published 2024)
